The term IC50 denotes the concentration that inhibits the measured activity by half.

The structures appear in SMILES notation. Where two headings read alike, the source gives them in different places.

The values below come from patent US12435087B2, “Modulators of DCN-1 and methods of use thereof” (Cellarity, Inc., priority 2023, dated 2025).

The test deals with DCN1 (DCUND1) protein PONY domain (Homo sapiens (Human), UniProt Q96GG9). Briefly: TR-FRET assay (binding to DCN-1, displacement of FAM-labeled probe). Put shortly: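 Compounds read at 1, 5 and 24 h, 0.1% final DMSO, by TR-FRET between terbium-streptavidin on biotinylated DCN1 PONY domain (E. coli) and a FAM-tagged non-covalent inhibitor probe. Two setups used, 5 nM protein with 20 nM labelled probe, or 0.31 nM protein with 100 nM labelled plus 800 nM unlabelled probe; buffer had TritonX and 200 mM NaCl. % activity relative to high (with probe) and low (without probe) controls.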
Chain of DCN1 (DCUND1) protein PONY domain (Q96GG9 60-248): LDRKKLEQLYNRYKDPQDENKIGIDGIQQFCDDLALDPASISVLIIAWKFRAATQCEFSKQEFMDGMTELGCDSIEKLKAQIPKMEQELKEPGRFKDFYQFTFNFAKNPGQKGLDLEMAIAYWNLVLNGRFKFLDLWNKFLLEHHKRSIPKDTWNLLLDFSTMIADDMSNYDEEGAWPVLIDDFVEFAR
For orientation: In TR-FRET formats the signal depends on donor and acceptor labels being close together.

Setting [1] is: 24 hr after treatment with compound, read-out: TR FRET IC50 24 hr.
Where [2] appears, read: TR FRET IC50 1 hr (nM), 1 hr after treatment with compound.
[3] abbreviates: read-out: TR FRET IC50 1 hr, 1 hr after treatment with compound.

`C=C(CN1CCOCC1)C(=O)Nc1cccc([C@@H]2c3c(C)nn(-c4ccccc4)c3N(CCO)C(=O)[C@@H]2NC(=O)c2cccc(C(F)(F)F)c2)c1` (racemic) [Compound I-55, rac-N-((4R,5R)-7-(2-hydroxyethyl)-3-methyl-4-(3-(2-(morpholinomethyl)acrylamido)phenyl)-6-oxo-1-phenyl-4,5,6,7-tetrahydro-1H-pyrazolo[3,4-b]pyridin-5-yl)-3-(trifluoromethyl)benzamide]: the IC50 is, setting by setting: under setting [1], 1000 to 3000 nM; under setting [2], 1000 to 3000 nM.
`C=C(CN(C)CC1COC1)C(=O)NCc1cccc([C@@H]2c3cnn(-c4ccccc4)c3N(CC)C(=O)[C@H]2NC(=O)c2cccc(C(F)(F)F)c2)c1` [Compound I-61]: the IC50 under setting [1] was at most 200 nM and the IC50 under setting [3] was at most 200 nM.
Turning to `CCN1C(=O)[C@@H](NC(=O)c2cccc(C(F)(F)F)c2)[C@H](c2cccc(NC(=O)/C=C(\C)C(=O)OC)c2)c2c(C)nn(-c3ccccc3)c21` (racemic) [Compound I-157], the IC50 runs as follows: under setting [1], 200 to 1000 nM; under setting [2], 1000 to 3000 nM.
For the molecule `C=C(CN(C)C1COC1)C(=O)NCc1cccc([C@@H]2c3c(C)nn(-c4ccccc4)c3N(CC)C(=O)[C@H]2NC(=O)c2cccc(C(F)(F)F)c2)c1` [Compound I-312], the IC50 under setting [1] was at most 200 nM and the 50% inhibitory concentration (IC50) under setting [3] is at most 200 nM.
`C=C(C(=O)NCc1cccc([C@@H]2c3cnn(-c4ccccc4)c3N(CC)C(=O)[C@H]2NC(=O)c2nccc(C(F)(F)F)n2)c1)C(C)N1CCN(C2COC2)CC1` (stereo partly shown) [Compound I-310]: the IC50 by setting is: under setting [1], at most 200 nM; under setting [3], at most 200 nM.
On to `C/C=C(\CN1CCOCC1)C(=O)N(C)Cc1cccc([C@@H]2c3cnn(-c4ccccc4)c3N(CC)C(=O)[C@H]2NC(=O)c2nccc(C(F)(F)F)n2)c1` [Compound I-326], for which the IC50 lay in the range of 1000 to 3000 nM under setting [1] and 1000 to 3000 nM under setting [2].
With `CCN1C(=O)[C@H](NC(=O)c2cccc(C(F)(F)F)c2)[C@@H](c2cccc(NC(=O)C#CCN(C)C)c2)c2cnn(-c3ccccc3)c21` (racemic) [Compound I-132, rac-N-((4R,5S)-4-(3-(4-(dimethylamino)but-2-ynamido)phenyl)-7-ethyl-6-oxo-1-phenyl-4,5,6,7-tetrahydro-1H-pyrazolo[3,4-b]pyridin-5-yl)-3-(trifluoromethyl)benzamide], the IC50 is, setting by setting: under setting [1], 200 to 1000 nM; under setting [2], 200 to 1000 nM.
Regarding `C/C=C(\CN1CCN(C2COC2)CC1)C(=O)N(C)Cc1cccc([C@@H]2c3cnn(-c4ccccc4)c3N(CC)C(=O)[C@H]2NC(=O)c2ccn(C(F)(F)F)n2)c1` [Compound I-237, N-((4R,5S)-7-ethyl-4-(3-(((E)-N-methyl-2-((4-(oxetan-3-yl)piperazin-1-yl)methyl)but-2-enamido)methyl)phenyl)-6-oxo-1-phenyl-4,5,6,7-tetrahydro-1H-pyrazolo[3,4-b]pyridin-5-yl)-1-(trifluoromethyl)-1H-pyrazole-3-carboxamide], the IC50 runs as follows: under setting [1], 200 to 1000 nM; under setting [2], 1000 to 3000 nM.
Turning to `CCN1C(=O)[C@@H](NC(=O)c2nccc(C(F)(F)F)n2)[C@H](c2cccc(NC(=O)/C=C/C(=O)OC(C)(C)C)c2)c2c(C)nn(-c3ccccc3)c21` (racemic) [Compound I-359, rac-tert-butyl (E)-4-((3-((4R,5S)-7-ethyl-3-methyl-6-oxo-1-phenyl-5-(4-(trifluoromethyl)pyrimidine-2-carboxamido)-4,5,6,7-tetrahydro-1H-pyrazolo[3,4-b]pyridin-4-yl)phenyl)amino)-4-oxobut-2-enoate], the IC50 reads like this: under setting [1], at most 200 nM; under setting [2], 1000 to 3000 nM.
Consider `CCN1C(=O)[C@@H](NC(=O)c2cccc(C(F)(F)F)c2)[C@@H](c2ccc(F)c(NC(=O)/C=C/CN(C)C)c2)c2cnn(-c3ccccc3)c21` (racemic) [Compound I-129], for which the IC50 by setting is: under setting [1], 1000 to 3000 nM; under setting [2], 1000 to 3000 nM.
`C=C(CN1CC2CC1CO2)C(=O)NCc1cccc([C@@H]2c3c(C)nn(-c4ccccc4)c3N(CC)C(=O)[C@H]2NC(=O)c2cccc(C(F)(F)F)c2)c1` (stereo partly shown) [Compound I-236]: the IC50 under setting [1] was at most 200 nM and the IC50 under setting [3] was at most 200 nM.
As to `C=C(CN1C2CCC1COC2)C(=O)NCc1cccc([C@@H]2c3cnn(-c4ccccc4)c3N(CC)C(=O)[C@H]2NC(=O)c2cccc(C(F)(F)F)c2)c1` [Compound I-289], the IC50 runs as follows: under setting [1], at most 200 nM; under setting [3], at most 200 nM.
`C=C(CO)C(=O)NCc1cccc([C@H]2c3cnn(-c4ccccc4)c3N(CC)C(=O)[C@@H]2NC(=O)c2cccc(C(F)(F)F)c2)c1` [Compound I-87]: the IC50 is, setting by setting: under setting [1], 1000 to 3000 nM; under setting [2], 1000 to 3000 nM.
Turning to `C=CC(=O)NCc1ccccc1[C@@H]1c2cnn(-c3ccccc3)c2N(CC)C(=O)[C@H]1NC(=O)c1cccc(C(F)(F)F)c1` (racemic) [Compound I-113], the IC50 under setting [1] was 1000 to 3000 nM and the IC50 under setting [2] was 1000 to 3000 nM.
As for `C=C(C(=O)NCc1cccc([C@@H]2c3cnn(-c4ccccc4)c3N(CC)C(=O)[C@H]2NC(=O)c2ccn(C(F)(F)F)n2)c1)C(C)N1CC2CC(C1)O2` (stereo partly shown) [Compound I-287], the half-inhibitory concentration (IC50) is, setting by setting: under setting [1], at most 200 nM; under setting [3], at most 200 nM.
Consider `C=C(C(=O)NCc1cccc([C@@H]2c3cnn(-c4ccccc4)c3N(CC)C(=O)[C@@H]2NC(=O)c2nccc(C(F)(F)F)n2)c1)C(C)N1CC2(COC2)C1` (stereo partly drawn) [Compound I-377, N-((4R,5R)-7-ethyl-4-(3-((2-methylene-3-(2-oxa-6-azaspiro[3.3]heptan-6-yl)butanamido)methyl)phenyl)-6-oxo-1-phenyl-4,5,6,7-tetrahydro-1H-pyrazolo[3,4-b]pyridin-5-yl)-4-(trifluoromethyl)pyrimidine-2-carboxamide], for which the IC50 under setting [1] was in the range of 200 to 1000 nM and the IC50 under setting [2] was in the range of 1000 to 3000 nM.
For `C=C(CN1CCOCC1)C(=O)N[C@@H](C)c1cccc([C@@H]2c3cnn(-c4ccccc4)c3N(CC)C(=O)[C@H]2NC(=O)c2nccc(C(F)(F)F)n2)c1` [Compound I-299], the IC50 is 1000 to 3000 nM under setting [1] and 1000 to 3000 nM under setting [2].
As to `CCN1C(=O)[C@H](NC(=O)c2cccc(C(F)(F)F)c2)[C@@H](c2cccc(NC(C)=O)c2)c2c(C)nn(-c3ccccc3)c21` (racemic) [Compound I-124], the IC50 runs as follows: under setting [1], 1000 to 3000 nM; under setting [2], 1000 to 3000 nM.
With `C=C(CN1CC2(COC2)C1)C(=O)NCc1cccc([C@@H]2c3cnn(-c4ccccc4)c3N(CC)C(=O)[C@H]2NC(=O)c2nccc(C(F)(F)F)n2)c1` [Compound I-161], the IC50 was at most 200 nM under setting [1] and at most 200 nM under setting [3].
For `CCN1C(=O)[C@@H](NC(=O)c2cccc(C(F)(F)F)c2)[C@H](c2cccc(NC(=O)/C(C)=C/C(=O)OC)c2)c2c(C)nn(-c3ccccc3)c21` (racemic) [Compound I-145], the half-inhibitory concentration (IC50) fell in the range of 200 to 1000 nM under setting [1] and 1000 to 3000 nM under setting [2].
Turning to `C=C(COC)C(=O)Nc1cccc([C@H]2c3c(C)nn(-c4ccccc4)c3N(CC)C(=O)[C@@H]2NC(=O)c2cccc(C(F)(F)F)c2)c1` [Compound I-158], the IC50 reads like this: under setting [1], at most 200 nM; under setting [2], 1000 to 3000 nM.
For `C/C=C(\CN1CCOCC1)C(=O)NCc1cccc([C@@H]2c3cnn(-c4ccccc4)c3N(CC)C(=O)[C@H]2NC(=O)c2ccn(C(F)(F)F)n2)c1` [Compound I-284], the IC50 is, setting by setting: under setting [1], at most 200 nM; under setting [2], 1000 to 3000 nM.
Regarding `C=C(CN1CCN(C2COC2)CC1)C(=O)NCc1cccc([C@@H]2c3c(C)nn(-c4ccccc4)c3N(CC)C(=O)[C@H]2NC(=O)c2cccc(C(F)(F)F)c2)c1` (stereo in doubt) [Compound I-252], the IC50 under setting [1] is at most 200 nM and the IC50 under setting [2] lay in the range of 1000 to 3000 nM.
`C=C(CN1CC2(CCO2)C1)C(=O)NCc1cccc([C@@H]2c3cnn(-c4ccccc4)c3N(CC)C(=O)[C@H]2NC(=O)c2cccc(C(F)(F)F)c2)c1` [Compound I-63]: the IC50 by setting is: under setting [1], at most 200 nM; under setting [3], at most 200 nM.
For the molecule `CCN1C(=O)[C@@H](NC(=O)c2cccc(C(F)(F)F)c2)[C@@H](c2cccc(NC(=O)C3=CCN(C)C3)c2)c2c(C)nn(-c3ccccc3)c21` (racemic) [Compound I-148], the IC50 is 200 to 1000 nM under setting [1] and 1000 to 3000 nM under setting [2].
For the molecule `C=C(CN1CCN(C2COC2)CC1)C(=O)NCc1cccc([C@@H]2c3cnn(-c4ccccc4)c3N(CC)C(=O)[C@H]2NC(=O)c2nccc(C(F)(F)F)n2)c1` [Compound I-163], the IC50 runs as follows: under setting [1], at most 200 nM; under setting [3], at most 200 nM.
For the molecule `C=C(CN1CC2(COC2)C1)C(=O)NCc1cccc([C@@H]2c3c(C)nn(-c4ccccc4)c3N(CC)C(=O)[C@H]2NC(=O)c2cccc(C(F)(F)F)c2)c1` [Compound I-283], the 50% inhibitory concentration (IC50) runs as follows: under setting [1], at most 200 nM; under setting [3], at most 200 nM.
With `C=C(C(=O)NCc1cccc([C@@H]2c3cnn(-c4ccccc4)c3N(CC)C(=O)[C@H]2NC(=O)c2ccn(C(F)(F)F)n2)c1)C(C)N1CCOCC1` (stereo partly shown) [Compound I-296], the IC50 was at most 200 nM under setting [1] and at most 200 nM under setting [3].
`C=C(Cn1cc(F)cn1)C(=O)NCc1cccc([C@@H]2c3cnn(-c4ccccc4)c3N(CC)C(=O)[C@H]2NC(=O)c2nccc(C(F)(F)F)n2)c1` [Compound I-331]: the IC50 reads like this: under setting [1], 200 to 1000 nM; under setting [2], 1000 to 3000 nM.
Consider `C=C(CN1CCOCC1)C(=O)NCc1cccc([C@@H]2c3cnn(-c4ccccc4)c3N(CC)C(=O)[C@H]2NC(=O)c2ccn(CCF)n2)c1` [Compound I-357], for which the IC50 by setting is: under setting [1], at most 200 nM; under setting [2], 200 to 1000 nM.
In the case of `CCN1C(=O)[C@@H](NC(=O)c2nccc(C(F)(F)F)n2)[C@H](c2cccc(C(=O)N(C)CC#N)c2)c2cnn(-c3ccccc3)c21` (racemic) [Compound I-370], the IC50 is, setting by setting: under setting [1], 1000 to 3000 nM; under setting [2], 1000 to 3000 nM.
With `CCN1C(=O)[C@@H](NC(=O)c2cccc(C(F)(F)F)c2)[C@H](c2cc(F)cc(NC(=O)/C=C/CN(C)C)c2)c2cnn(-c3ccccc3)c21` [Compound I-151], the IC50 by setting is: under setting [1], at most 200 nM; under setting [2], 1000 to 3000 nM.
